Experimental data as given in patent publication US9505741B2, “Prolylhydroxylase inhibitors and methods of use” (CORNELL UNIVERSITY, priority 2010, dated 2016).
pIC50, pKi: −log10 of the molar value.

Key:
[1] = test system: HIF ODD-luc reporter (HIF PHD-controlled stability); experiment: HTS with cell-based HIF ODD-luciferase reporter (SH-SY5Y-ODD-luc cells); set-up: species or system human; settings: three hours; for activation at 10 µM: Homo sapiens, 3 h, read-out: reporter activation (%) relative to ciclopirox (100%) and DMSO (0%)
Source text: For HTS, a cell-based reporter system was employed. The cell-based reporter system was generated by fusing HIF-1a oxygen degradable domain (ODD) to luciferase (Safran M. et al., PNAS, 2006, 103, 105-110), which represents a cell-based capture assay monitored by the consumption of the luciferase-labeled HIF substrate under the conditions more physiological than in vitro test tubes. In accord with their structure activity relationship in reporter assay, the best “hits” stabilize HIF1, upregulate known HIF target genes in a human neuronal line, and exert neuroprotective effects in established model of oxidative stress in cortical neurons.
The reporter cell lines constitutively expressing ODD-luc (human neuroblastoma, SH-SY5Y) were stable for more than one year without significant change in their response to canonical PHD inhibitors such as DFO, dihydroxybenzoate (DHB), dimethyloxalylglycine (DMOG), and ciclopirox (FIG. 1B). In order to verify the specificity of luciferase changes as an assay for PHD activity, several control lines were developed: the control line expressing ODD-luc with proline 564 and 567 mutated to Ala generates luciferase fusion that cannot be degraded and experimentally identifies a ceiling level of ODD-luc protein attainable in these cells. The background signal for the wild-type HIF ODD-luc line (PYIP) corresponds to approximately 5-6% of the ODD-luc levels in the control line AYIA (double mutant P564A/P567A line) (FIG. 2). Treatment with 10 μM ciclopirox results in a 10-fold increase of a background signal for the wild-type ODD-luc reporter (PYIP line), i.e. reaches almost 50% of the threshold value (FIG. 2).
The assay was optimized for HTS format to provide Z values above 0.7. SH-SY5Y-ODD-luc cells were plated into 384—well white flat-bottom plates at 7,000 cell/well in 30 μl of serum and incubated overnight at 37° C., 5% CO2. The next day, compounds were added to a final concentration of 10 μM, plates were incubated for three hours at 37° C., and luciferase activity was measured using SteadyGlo™ reagent (Promega). Each plate had two internal standards, ciclopirox (100%), and DMSO (0%). The reporter activation (%) was calculated as a ratio (L−LDMSO)/(Lciclopirox−LDMSO). Hits were defined as those >25%. HTS of 85,000 compounds was performed at Rockefeller HTS Resource Center. 295 hits from the initial screen have been tested in quadruplicate, 160 were confirmed. Classification into 10 structural clusters has been done manually; 25 hits were singletons.

[2] = test system: HIF ODD-luc reporter (HIF PHD-controlled stability); experiment: ODD-luc reporter, concentration titration and kinetics of reporter activation (extended SAR); assay type: cell-based, human; settings: for pKi: linear plot 1/(K0−v) vs inhibitor concentration, read-out: apparent inhibition constant from time course of reporter activation
Source text: The HIF ODD-luciferase reporter system is controlled by the rate of PHD catalyzed reaction, and from an enzyme kinetics point of view, it is a “capture assay” monitored by the consumption of a substrate, the heterologously expressed HIF ODDluciferase fusion protein. In the kinetic regime, i.e. monitoring the time-course of luminescence changes (FIG. 3A), the ODD-luc reporter system permits quantitative characterization of promoter capacity (Ko, rate of fusion protein generation), enzyme activity, and inhibition constant determination.
The rate of fusion accumulation equals the rate of its production (Ko) minus the rate of the rate-limiting step, controlled by HIF PHDs, which obeys Michaelis-Menten kinetics, as follows: v=d[ODDluc]/dt=K0−k1[PHD][ODDluc]/{Km(1+[I]/K1)+[ODDluc]} (Eq.1)
The background luminescence signal calibrated with recombinant luciferase allows an estimation of the steady-state concentration of the ODD-luc fusion protein. Under the conditions used the steady-state value of 60 rlu (relative light units) corresponds to 1 pg luciferase protein; dividing this number by the total cell volume taken as a single cell volume (233μ^3) multiplied by 30,000 cells/well density (number of cells in a 96 well dish), the ODD-luc fusion protein steady-state concentration is found to be equal to 2.3 nM, which is well below all reported Km values for HIF1 (Dao, J. H., et al., Anal Biochem 384, 213-223 2009; Hewitson, K. S., et al., Methods Enzymol 435, 25-42 2007; Koivunen, P., et al., J Biol Chem 281, 28712-28720 2006; Tuckerman, J. R., et al., FEBS Lett 576, 145-150 2004. Therefore, it is preferable to work under nonsaturating conditions with respect to HIF substrate, i.e. optimal conditions for selecting inhibitors competitive against HIF substrate. Moreover, as compared to the in vitro assay, which uses a 19 amino acid peptide fragment surrounding the oxygen dependent domain (ODD), the instant ODD-luciferase construct contains 123 amino acid acids, and thus, more closely emulates the behavior of native HIF. The initial concentration of fusion can be considered much lower than Km, and thus, can be ignored in the rate equation: v=d[ODDluc]/dt=K0−k1[PHD][ODDluc]/Km(1+[I]/K1) (Eq.2)
Knowing the capacity of the promoter, the inhibition constant can be determined, but not the inhibition type, from the initial rates of signal accumulation at varied fixed concentrations of potential inhibitor. The capacity of promoter, K0 can be determined under the conditions of total inhibition of PHD activity by means of complete iron deprivation achieved in the presence of high concentrations of ciclopirox, i.e. when the increase in the ciclopirox concentrations give no further increase in the rate of luciferase signal growth (FIG. 3B). […]

[3] = Iron binding by calcein displacement from its iron complex; assay type: physicochemical
Protocol: The iron chelation ability is determined by displacement of calcein from its complex with iron monitored by fluorescence (excitation 490 nm, emission 523 nm, cut-off 515 nm) on a Spectramax M5e platereader (Molecular Devices). The apparent binding constant for calcein (ca.50 nM) was determined from Fe titration curve for 1 μM calcein in 5 mM Tris-HCl buffer, pH 7.5. The ratio between the iron binding constant for calcein and a particular compound, i.e., KQ/KCa, was estimated by fitting the titration curve into the dependence of [Fe]o vs. Y, where Y═[Ca—Fe]/[Ca] is a ratio of calcein-bound Fe to free (fluorescent) calcein: [Fe]o=KCaY+[Ca]oY/(Y+1)+[Q]oY/(Y+KQ/KCa) (Eq.4)
The association rate constant was determined as the second order rate constant for calcein displacement from its complex with iron (1 μM:1 μM) upon addition of an oxyquinoline (5-20 μM) calculated from the slope of a linear plot of the initial rate of calcein release vs. the concentration of oxyquinoline added. All experiments were performed in triplicates or more. All values are presented as mean±S.E.M.

| Structure (SMILES) | reporter activation in HTS, in words ([1]; 10 μM) | activation at 10 µM ([1]; SH-SY5Y-ODD-luc) [%] | further results |
| --- | --- | --- | --- |
| CCC(C)C(N)C(=O)Nc1nnc(-c2ccc(Br)cc2)s1 (stereo not drawn) [2-amino-N-(5-(4-bromophenyl)-[1,3,4]thiadiazol-2-yl)-3-methylpentanamide] | no reporter activation at all | – | – |
| COc1ccc(-c2nnc(NC(=O)C(N)Cc3ccccc3)s2)cc1 (stereo not drawn) [2-amino-N-(5-(4-methoxy-phenyl)-[1,3,4]thiadiazol-2-yl)-3-phenylpropanamide] | no reporter activation at all | – | – |
| O=C(C=C(O)c1ccccc1)c1ccccc1O [2′β-dihydroxychalcone] | – | – | fold reporter activation over background ([1]; 10 μM, SH-SY5Y-ODD-luc): 7.5 fold; reporter activation (%) relative to ciclopirox (100%) and DMSO (0%) ([1]; 10 μM, SH-SY5Y-ODD-luc): 71% |
| Oc1cccc(CN2CCCn3cccc3C2c2ccc(F)cc2)c1O (stereo not drawn) [3-((1-(4-fluorophenyl)-4,5-dihydro-1H-pyrrolo[1,2-a][1,4]diazepin-2(3H)-yl)methyl)benzene-1,2-diol] | – | 40 | – |
| Oc1cccc(CN2CCN(CCOC(c3ccccc3)c3ccc(F)c(F)c3)CC2)c1O (stereo not drawn) [3-((4-(2-((3,4-difluorophenyl) (phenyl)methoxy)ethyl)piperazin-1-yl)methyl)benzene-1,2-diol] | – | 60 | – |
| FC(F)(F)c1ccccc1-n1c(S)nnc1-c1nccc2ccccc12 [5-isoquinolin-1-yl-4-(2-trifluoromethyl-phenyl)-4H-[1,2,4]triazole-3-thiol] | close to that for the internal standard | – | – |
| O=C1/C(=N\Nc2nc3ccccc3s2)C(c2ccccc2)=NN1c1ccccc1 [(Z)-4-(benzo[d]thiazol-2-ylhydrazono)-1,3-diphenyl-1H-pyrazol-5(4H)-one] | – | 70 | – |
| N[C@H](Cc1ccc(O)c(O)c1)C(=O)O [D-dopa, reference compound] | not | – | – |
| CCOC(=O)c1ccc(O)c(O)c1 [DHB, Ethyl-3,4-dihydroxybenzoate] | – | – | concentration at which the reporter is activated ([2]; FIG. 1B): > 50 µM; pKi [2]: 3.28 |
| COC(=O)CNC(=O)C(=O)OC [DMOG, dimethyloxalylglycine] | – | – | pKi [2]: 2.89 |
| O=C1/C(=N\Nc2nccs2)C(c2ccccc2)=NN1c1ccccc1 [I, (Z)-1,3-diphenyl-4-(thiazol-2-yl-hydrazono)-1H-pyrazol-5(4H)-one] | – | 86 | – |
| NNc1nc(-c2ccccc2)cc(-c2ccccc2)n1 [II, 2-hydrazinyl-4,6-diphenylpyrimidine] | – | 64 | fold reporter activation over background ([1]; 10 μM, SH-SY5Y-ODD-luc): 6.7 fold; iron binding / chelation ability in solution, in words [3]: no iron chelation properties in solution |
| S=C(Nc1ccccc1)Nc1nccs1 [III, 1-phenyl-3-(1,3-thiazol-2-yl)thiourea] | – | 41 | fold reporter activation over background ([1]; 10 μM, SH-SY5Y-ODD-luc): five-fold |
| O=C(Nc1nnc(-c2cccc(Br)c2)s1)C1CCCN1 (stereo not drawn) [IV, N-[5-(3-bromophenyl)-[1,3,4]thiadiazol-2-yl]pyrrolidine-2-carboxamide] | – | 35 | – |
| N[C@@H](Cc1ccc(O)c(O)c1)C(=O)O [L-Dopa, reference compound] | – | 21 | fold reporter activation over background ([1]; 10 μM, SH-SY5Y-ODD-luc): 3 fold; pIC50 ([2]; Homo sapiens, ODD-luc reporter): 4.82 |
| CC(C)n1c(S)nnc1-c1nccc2ccccc12 [V, 4-isopropyl-5-isoquinolin-1-yl-4H-[1,2,4]triazole-3-thiol] | close to that for the internal standard | 90 | – |
| O=C1/C(=C\c2ccc(O)c(O)c2)SC(=S)N1c1ccccc1 [VI, (E)-5-(3,4-dihydroxybenzylidene)-3-phenyl-2-thioxothiazolidin-4-one] | – | 38 | – |
| Oc1c(Br)cc(Br)c2cccnc12 [broxyquinoline, reference compound] | comparable | – | – |
| C[C@@](Cc1ccc(O)c(O)c1)(NN)C(=O)O [carbidopa, reference compound] | not | – | – |
| O=C(CCl)c1ccc(O)c2ncccc12 [chloroacetoquinoline] | comparable to 8-hydroxyquinoline itself | – | – |
| Oc1c(Cl)cc(Cl)c2cccnc12 [chloroxine, reference compound] | comparable | – | – |
| Cc1cc(C2CCCCC2)n(O)c(=O)c1 [ciclopirox, reference compound] | – | – | fold reporter activation over background ([1]; 10 μM, SH-SY5Y-ODD-luc): 10 fold |
| Oc1c(I)cc(Cl)c2cccnc12 [clioquinol, reference compound] | comparable | – | – |
| NCCc1ccc(O)c(O)c1 [dopamine, reference compound] | not | – | – |
| CC1=NN(c2ccccc2)C(=O)C1 [edaravone, reference compound] | no reporter activation | – | – |
